Experimental data taken from US20220356170A1, “SREBP INHIBITOR COMPRISING A THIOPHENE CENTRAL RING” (Capulus Therapeutics, LLC, priority 2019, published 2022).

Key:
Assay in all cases: Cancer cell growth inhibition, Sulforhodamine B
Format in all cases: cell-based
MDAMB435 = conditions: Homo sapiens, MDA-MB-435; MDAMB435 (skin), 72 hr; Responder Cell Lines
Description: (§1) The ability of select compounds to inhibit cell growth in various cancer cell lines are evaluated. […] The cell lines shown in Table 5 have reduced growth by at least 50% at 10 uM or lower over 72 hr treatment in growth media. The cell lines shown in Table 6 have reduced growth by at least 50% with an IC50 greater than 10 uM.
(§2) Six 10-fold compound dilutions are prepared in DMSO (e.g. 10 mM, 1 mM, 100 uM, 10 uM, 1 uM, and 0.1 uM). Single data points are acquired for each concentration. The final concentration of DMSO is 0.1%. The duration of the treatment is 72 hr. Growth inhibition is measured using Sulforhodamine B in a protein staining assay. Activity of the agents is determined by evaluation the following parameters: IC50, GI50, IC10, TGI, LC50, IC90, and GI90 (where these values can be calculated).

MDAMB468 = conditions: Homo sapiens, MDA-MB-468, 72 h, MDAMB468 (breast)
Description: as §1, §2

MT3 = conditions: MT-3, 72 h, MT3 (breast)
Description: as §1, §2

ASPC1 = conditions: Homo sapiens; ASPC1 (pancreas), 72 hr; Responder Cell Lines
Description: as §1, §2

PC3 = conditions: Homo sapiens, PC-3; PC3 (prostate), 72 hr; Non-Responder Cell Lines with IC50 >10 uM or Not Determined
Description: as §1, §2

LOVO = conditions: Homo sapiens; LOVO (colon), 72 hr; Responder Cell Lines
Description: as §1, §2

NCIH292 = conditions: Homo sapiens, NCI-H292; NCIH292 (lung), 72 hr; Non-Responder Cell Lines with IC50 >10 uM or Not Determined
Description: as §1, §2

C33A = conditions: Homo sapiens, C-33-A; 72 hr; Responder Cell Lines
Description: as §1, §2

PANC1 = conditions: Homo sapiens, PANC-1; PANC1 (pancreas), 72 hr; Non-Responder Cell Lines with IC50 >10 uM or Not Determined
Description: as §1, §2

MV4-11 = conditions: Homo sapiens, MV4-11, 72 h, MV4-11 (hematological)
Description: as §1, §2

SAOS2 = conditions: Homo sapiens, SAOS-2; SAOS2 (bone), 72 hr; Non-Responder Cell Lines with IC50 >10 uM or Not Determined
Description: as §1, §2

T24 = conditions: Homo sapiens, T-24; T24 (bladder), 72 hr; Non-Responder Cell Lines with IC50 >10 uM or Not Determined
Description: as §1, §2

MDAMB436 = conditions: Homo sapiens, MDA-MB-436; MDAMB436 (breast), 72 hr; Non-Responder Cell Lines with IC50 >10 uM or Not Determined
Description: as §1, §2

MCF7 = conditions: Homo sapiens; MCF7 (breast), 72 hr; Responder Cell Lines
Description: as §1, §2

UO31 = conditions: Homo sapiens, UO-31; UO31 (kidney), 72 hr; Non-Responder Cell Lines with IC50 >10 uM or Not Determined
Description: as §1, §2

NCIH460 = conditions: Homo sapiens, NCI-H460; NCIH460 (lung), 72 hr; Non-Responder Cell Lines with IC50 >10 uM or Not Determined
Description: as §1, §2

UMUC3 = conditions: Homo sapiens; UMUC3 (bladder), 72 hr; Non-Responder Cell Lines with IC50 >10 uM or Not Determined
Description: as §1, §2

SU-DHL-6 = conditions: Homo sapiens, SU-DHL-6, 72 h, SU-DHL-6 (hematological)
Description: as §1, §2

OVCAR4 = conditions: Homo sapiens, OVCAR-4; OVCAR4 (ovary), 72 hr; Non-Responder Cell Lines with IC50 >10 uM or Not Determined
Description: as §1, §2

NCIH82 = conditions: Homo sapiens, NCI-H82, 72 h, NCIH82 (lung)
Description: as §1, §2

SKLMS1 = conditions: Homo sapiens, SK-LMS-1; SKLMS1 (uterus), 72 hr; Non-Responder Cell Lines with IC50 >10 uM or Not Determined
Description: as §1, §2

HEPG2 = conditions: Homo sapiens; HEPG2 (liver), 72 hr; Responder Cell Lines
Description: as §1, §2

SKMEL28 = conditions: Homo sapiens, SK-MEL-28; SKMEL28 (skin), 72 hr; Non-Responder Cell Lines with IC50 >10 uM or Not Determined
Description: as §1, §2

A549 = conditions: Homo sapiens; A549 (lung), 72 hr; Responder Cell Lines
Description: as §1, §2

[1] = Non-Responder Cell Lines with IC50 >10 uM or Not Determined

`CC(C)(O)c1cc(-c2csc(-c3ccc(C(=O)N4CCC(O)CC4)cc3Cl)c2)ccn1` [Compound 1, (3-chloro-4-(4-(2-(2-hydroxypropan-2-yl)pyridin-4-yl)thiophen-2-yl)phenyl)(4-hydroxypiperidin-1-yl)methanone] showed an IC50 (MDAMB435) of less than 10 µM, an IC50 (MDAMB468; [1]) greater than 10 µM and an IC50 (MDAMB468; Responder Cell Lines) of less than 10 µM. For the same molecule, the IC50 (MT3; [1]) was greater than 10 µM, the IC50 (MT3; Responder Cell Lines) was less than 10 µM and the IC50 (ASPC1) was less than 10 µM. For the same molecule, the IC50 (PC3) was greater than 10 µM, the IC50 (LOVO) was less than 10 µM and the IC50 (NCIH292) was greater than 10 µM. For the same molecule, the IC50 (C33A) was less than 10 µM, the IC50 (PANC1) was greater than 10 µM and the IC50 (MV4-11; [1]) was greater than 10 µM. For the same molecule, the IC50 (MV4-11; Responder Cell Lines) was less than 10 µM, the IC50 (SAOS2) was greater than 10 µM and the IC50 (T24) was greater than 10 µM. It also gave an IC50 (MDAMB436) greater than 10 µM, an IC50 (MCF7) of less than 10 µM and an IC50 (UO31) greater than 10 µM. The IC50 (NCIH460) was greater than 10 µM, the IC50 (UMUC3) was greater than 10 µM and the IC50 (SU-DHL-6; [1]) was greater than 10 µM. The IC50 (SU-DHL-6; Responder Cell Lines) was less than 10 µM, the IC50 (OVCAR4) was greater than 10 µM and the IC50 (NCIH82; [1]) was greater than 10 µM. For the same molecule, the IC50 (NCIH82; Responder Cell Lines) was less than 10 µM, the IC50 (SKLMS1) was greater than 10 µM and the IC50 (HEPG2) was less than 10 µM. It also gave an IC50 (SKMEL28) greater than 10 µM and an IC50 (A549) of less than 10 µM.
